Laboratory results taken from US3956274A, “New compound 6'-deoxy-'-substituted or unsubstituted amino-lividomycins and the production thereof” (Zaidan Hojin Biseibutsu Kagaku Kenkyu Kai, priority 1973, dated 1976).
Values after ≈ are worked out from the molar mass of the structure shown. Like-named read-outs stand apart in the source and are kept apart here.

Columns and labels:
[1] = system: kanamycin-resistant strains; conditions: in words; cited from earlier work
[2] = system: Klebsiella pneumoniae PCI 602; experiment: MIC, standard serial dilution method; type: cell-based; conditions: Klebsiella pneumoniae, PCI602; K. pneumoniae PCI 602; nutrient agar, 37°C, 18 hours; read-out: Minimal inhibitory concentration
Method: (§1) The minimum inhibitory concentrations (mcg/ml) of 6'-amino-6'-deoxylividomycin B, 6'-deoxy-6'-methylaminolividomycin B and 6'-deoxy-6'-(2-hydroxyethylamino) lividomycin B against various microorganisms were determined according to a standard serial dilution method using nutrient agar incubation medium at 37°C, the estimation being effected after 18 hours incubation except for Mycobacterium smegmalis ATCC 607, in which the estimation being effected after 48 hours incubation. The minimum inhibitory concentrations (mcg/ml) of neomycin and lividomycin B were also determined in the same manner they also for comparison.

[3] = system: Salmonella typhosa T-63; experiment: MIC, standard serial dilution method; type: cell-based; conditions: Salmonella enterica, TYPHOSA, 18 h, read-out: Minimal inhibitory concentration
Method: as §1

[4] = system: Pseudomonas aeruginosa 99; experiment: MIC, standard serial dilution method; type: cell-based; conditions: read-out: Minimal inhibitory concentration
Method: as §1

[5] = system: Bacillus subtilis NRRL B-558; experiment: MIC, standard serial dilution method; type: cell-based; conditions: Bacillus subtilis, NRRLB558; B. subtilis NRRL B-558; nutrient agar, 37°C, 18 hours; read-out: Minimal inhibitory concentration
Method: as §1

[6] = system: Escherichia coli NIHJ; experiment: MIC, standard serial dilution method; type: cell-based; conditions: Escherichia coli, read-out: Minimal inhibitory concentration
Method: as §1

[7] = system: Proteus rettgeri GN 466; experiment: MIC, standard serial dilution method; type: cell-based; conditions: Providencia rettgeri, read-out: Minimal inhibitory concentration
Method: as §1

[8] = system: Escherichia coli K-12; experiment: MIC, standard serial dilution method; type: cell-based; conditions: Escherichia coli, read-out: Minimal inhibitory concentration
Method: as §1

[9] = system: Pseudomonas aeruginosa No.12; experiment: MIC, standard serial dilution method; type: cell-based; conditions: Pseudomonas aeruginosa; P. aeruginosa No.12; nutrient agar, 37°C, 18 hours; read-out: Minimal inhibitory concentration
Method: as §1

[10] = system: Escherichia coli K-12 ML 1630; experiment: MIC, standard serial dilution method; type: cell-based; conditions: Escherichia coli, K12ML1630; E. coli K-12 ML 1630; nutrient agar, 37°C, 18 hours; read-out: Minimal inhibitory concentration
Method: as §1

[11] = system: Escherichia coli K-12 ML 1410; experiment: MIC, standard serial dilution method; type: cell-based; conditions: Escherichia coli, read-out: Minimal inhibitory concentration
Method: as §1

[12] = system: Staphylococcus aureus FDA 209 P; experiment: MIC, standard serial dilution method; type: cell-based; conditions: Staphylococcus aureus, FDA209; S. aureus FDA 209 P; nutrient agar, 37°C, 18 hours; read-out: Minimal inhibitory concentration
Method: as §1

[13] = system: Escherichia coli K-12 R-5; experiment: MIC, standard serial dilution method; type: cell-based; conditions: Escherichia coli, K12R5; E. coli K-12 R-5; nutrient agar, 37°C, 18 hours; read-out: Minimal inhibitory concentration
Method: as §1

[14] = system: Sarcina lutea PCI 1001; experiment: MIC, standard serial dilution method; type: cell-based; conditions: Micrococcus luteus, PCI1001, nutrient agar, 37°C, 18 hours, read-out: Minimal inhibitory concentration
Method: as §1

[15] = system: Escherichia coli K-12 ML 1410 R 81; experiment: MIC, standard serial dilution method; type: cell-based; conditions: Escherichia coli, 18 h, read-out: Minimal inhibitory concentration
Method: as §1

[16] = system: Escherichia coli K-12 LA 290 R 56; experiment: MIC, standard serial dilution method; type: cell-based; conditions: Escherichia coli, 18 h, read-out: Minimal inhibitory concentration
Method: as §1

[17] = system: Escherichia coli K-12 J 5 R 11-2; experiment: MIC, standard serial dilution method; type: cell-based; conditions: Escherichia coli, K12J5R112; E. coli K-12 J 5 R 11-2; nutrient agar, 37°C, 18 hours; read-out: Minimal inhibitory concentration
Method: as §1

[18] = system: Mycobacterium smegmatis ATCC 607; experiment: MIC, standard serial dilution method; type: cell-based; conditions: Mycolicibacterium smegmatis, ATCC607, nutrient agar, 37°C, 48 hours, read-out: Minimal inhibitory concentration
Method: as §1

[19] = system: Klebsiella pneumoniae type 22 No. 3038; experiment: MIC, standard serial dilution method; type: cell-based; conditions: Klebsiella pneumoniae, read-out: Minimal inhibitory concentration
Method: as §1

[20] = system: Proteus rettgeri GN 311; experiment: MIC, standard serial dilution method; type: cell-based; conditions: Providencia rettgeri, GN311, nutrient agar, 37°C, 18 hours, read-out: Minimal inhibitory concentration
Method: as §1

[21] = system: Pseudomonas aeruginosa A 3; experiment: MIC, standard serial dilution method; type: cell-based; conditions: Pseudomonas aeruginosa, A3, 18 h, read-out: Minimal inhibitory concentration
Method: as §1

[22] = system: Escherichia coli K-12 W 677; experiment: MIC, standard serial dilution method; type: cell-based; conditions: Escherichia coli, read-out: Minimal inhibitory concentration
Method: as §1

[23] = system: Pseudomonas aeruginosa TI-13-1; experiment: MIC, standard serial dilution method; type: cell-based; conditions: Pseudomonas aeruginosa, TI131; P. aeruginosa TI-13-1; nutrient agar, 37°C, 18 hours; read-out: Minimal inhibitory concentration
Method: as §1

[24] = system: Pseudomonas aeruginosa GN 315; experiment: MIC, standard serial dilution method; type: cell-based; conditions: Pseudomonas aeruginosa, read-out: Minimal inhibitory concentration
Method: as §1
(§2) In the above table, the mark * denotes the strain is a drug-resistant
(§3) strain of patient-origin.

[25] = system: Escherichia coli K-12 LA 290 R 55; experiment: MIC, standard serial dilution method; type: cell-based; conditions: Escherichia coli, 18 h, read-out: Minimal inhibitory concentration
Method: as §1, §2, §3

[26] = system: Escherichia coli K-12 ML 1629; experiment: MIC, standard serial dilution method; type: cell-based; conditions: Escherichia coli, K12ML1629; E. coli K-12 ML 1629, drug-resistant strain of patient-origin; nutrient agar, 37°C, 18 hours; read-out: Minimal inhibitory concentration
Method: as §1, §2, §3

[27] = system: Escherichia coli K-12 JR 66/W 677; experiment: MIC, standard serial dilution method; type: cell-based; conditions: Escherichia coli, 18 h, read-out: Minimal inhibitory concentration
Method: as §1, §2, §3

[28] = system: Escherichia coli K-12 LA 290 R 64; experiment: MIC, standard serial dilution method; type: cell-based; conditions: Escherichia coli; E. coli K-12 LA 290 R 64; nutrient agar, 37°C, 18 hours; read-out: Minimal inhibitory concentration
Method: as §1

[29] = E. coli NIHJ, nutrient agar, 37°C, 18 hours
[30] = GN466, Proteus rettgeri GN 466, nutrient agar, 37°C, 18 hours
[31] = K12, E. coli K-12, nutrient agar, 37°C, 18 hours
[32] = K12W677, E. coli K-12 W 677, nutrient agar, 37°C, 18 hours
[33] = GN315, P. aeruginosa GN 315, drug-resistant strain of patient-origin, nutrient agar, 37°C, 18 hours
[34] = Pseudomonas aeruginosa, P. aeruginosa 99, nutrient agar, 37°C, 18 hours

Row | Compound | activity against kanamycin-resistant strains [1] | MIC [2] | MIC [3] | MIC [5] | MIC [6, 29] | MIC [9] | MIC [10] | MIC [12] | MIC [13] | MIC [14] | MIC [15] | MIC [16] | MIC [17] | MIC [18] | MIC [20] | MIC [21] | MIC [23] | MIC [25] | MIC [26] | MIC [27] | further results
1 | NCC1CCC(N)C(OC2C(N)CC(N)C(OC3OC(CO)C(O)C(N)C3O)C2O)O1 (centres unmarked) [3', 4'-dideoxykanamycin B] | actually effective |  |  |  |  |  |  |  |  |  |  |  |  |  |  |  |  |  |  |  | 
2 | NC[C@@H]1CC[C@@H](N)[C@@H](O[C@H]2[C@H](O)[C@@H](O)[C@H](N)C[C@@H]2N)O1 [3', 4'-dideoxyneamine] | actually effective |  |  |  |  |  |  |  |  |  |  |  |  |  |  |  |  |  |  |  | 
3 | NCC1OC(OC2C(N)CC(N)C(OC3OC(CO)C(O)C(N)C3O)C2O)C(O)CC1O (centres unmarked) [3'-Deoxykananmycin, 3'-deoxykanamycin] | actually effective |  |  |  |  |  |  |  |  |  |  |  |  |  |  |  |  |  |  |  | 
4 | NC[C@@H]1O[C@H](O[C@H]2[C@@H](O)[C@H](O[C@@H]3[C@@H](O)[C@H](N)C[C@H](N)[C@H]3O[C@H]3O[C@H](CN)[C@@H](O)C[C@H]3N)O[C@@H]2CO)[C@H](N)[C@@H](O)[C@@H]1O [ALVB, 6'-amino-6'-deoxylividomycin B] |  | 0.78 µg/mL (≈ 1.3 µM) | 0.39 µg/mL (≈ 0.651 µM) | < 0.2 µg/mL | 0.78 µg/mL (≈ 1.3 µM) | 0.78 µg/mL (≈ 1.3 µM) | 50 µg/mL (≈ 83.5 µM) | < 0.2 µg/mL | 0.39 µg/mL (≈ 0.651 µM) | 0.78 µg/mL (≈ 1.3 µM) | 100 µg/mL (≈ 167 µM) | 0.39 µg/mL (≈ 0.651 µM) | 25 µg/mL (≈ 41.8 µM) | < 0.2 µg/mL | 25 µg/mL (≈ 41.8 µM) | 1.56 µg/mL (≈ 2.61 µM) | 100 µg/mL (≈ 167 µM) | 1.56 µg/mL (≈ 2.61 µM) | 50 µg/mL (≈ 83.5 µM) | 1.56 µg/mL (≈ 2.61 µM) | MIC ([4]; Pseudomonas aeruginosa, 99, 18 h): 1.56 µg/mL (≈ 2.61 µM); MIC [7, 30]: 3.12 µg/mL (≈ 5.21 µM); MIC [8, 31]: 0.78 µg/mL (≈ 1.3 µM); MIC ([11]; K12ML1410, 18 h): 1.56 µg/mL (≈ 2.61 µM); MIC ([19]; TYPE22NO.3038, 18 h): 1.56 µg/mL (≈ 2.61 µM); MIC [22, 32]: 0.78 µg/mL (≈ 1.3 µM); MIC [24, 33]: 25 µg/mL (≈ 41.8 µM)
5 | NC[C@@H]1O[C@H](O[C@H]2[C@@H](O)[C@H](O[C@@H]3[C@@H](O)[C@H](N)C[C@H](N)[C@H]3O[C@H]3O[C@H](CNCCO)[C@@H](O)C[C@H]3N)O[C@@H]2CO)[C@H](N)[C@@H](O)[C@@H]1O [HALVB, 6'-deoxy-6'-(2-hydroxyethylamino) lividomycin B] |  | 0.78 µg/mL (≈ 1.21 µM) | 1.56 µg/mL (≈ 2.43 µM) | < 0.2 µg/mL | 3.12 µg/mL (≈ 4.85 µM) | 0.78 µg/mL (≈ 1.21 µM) | > 100 µg/mL | 0.39 µg/mL (≈ 0.607 µM) | 1.56 µg/mL (≈ 2.43 µM) | 25 µg/mL (≈ 38.9 µM) | > 100 µg/mL | 0.78 µg/mL (≈ 1.21 µM) | > 100 µg/mL | < 0.2 µg/mL | 50 µg/mL (≈ 77.8 µM) | 6.25 µg/mL (≈ 9.72 µM) | > 100 µg/mL | 1.56 µg/mL (≈ 2.43 µM) | > 100 µg/mL | 6.25 µg/mL (≈ 9.72 µM) | MIC [4, 34]: 25 µg/mL (≈ 38.9 µM); MIC ([7]; GN466, 18 h): 6.25 µg/mL (≈ 9.72 µM); MIC ([8]; K12, 18 h): 1.56 µg/mL (≈ 2.43 µM); MIC ([11]; K12ML1410, E. coli K-12 ML 1410, nutrient agar, 37°C, 18 hours): 3.12 µg/mL (≈ 4.85 µM); MIC [28]: 1.56 µg/mL (≈ 2.43 µM); MIC ([19]; TYPE22NO.3038, K. pneumoniae type 22 No. 3038, nutrient agar, 37°C, 18 hours): 3.12 µg/mL (≈ 4.85 µM); MIC ([22]; K12W677, 18 h): 1.56 µg/mL (≈ 2.43 µM); MIC [24, 33]: 12.5 µg/mL (≈ 19.4 µM)
6 | CNC[C@H]1O[C@H](O[C@H]2[C@H](O[C@@H]3O[C@H](CO)[C@@H](O[C@H]4O[C@@H](CN)[C@@H](O)[C@H](O)[C@H]4N)[C@H]3O)[C@@H](O)[C@H](N)C[C@@H]2N)[C@H](N)C[C@@H]1O [MALVB, 6'-deoxy-6'-methylaminolividomycin B] |  | 0.78 µg/mL (≈ 1.27 µM) | 0.78 µg/mL (≈ 1.27 µM) | < 0.2 µg/mL |  | 0.78 µg/mL (≈ 1.27 µM) | > 100 µg/mL | < 0.2 µg/mL | 1.56 µg/mL (≈ 2.55 µM) | 6.25 µg/mL (≈ 10.2 µM) | > 100 µg/mL | 1.56 µg/mL (≈ 2.55 µM) | 100 µg/mL (≈ 163 µM) | < 0.2 µg/mL | 25 µg/mL (≈ 40.8 µM) | 3.12 µg/mL (≈ 5.09 µM) | > 100 µg/mL | 1.56 µg/mL (≈ 2.55 µM) | > 100 µg/mL | 3.12 µg/mL (≈ 5.09 µM) | MIC [4, 34]: 25 µg/mL (≈ 40.8 µM); MIC ([6]; 18 h): 3.12 µg/mL (≈ 5.09 µM); MIC [7, 30]: 12.5 µg/mL (≈ 20.4 µM); MIC [8, 31]: 0.78 µg/mL (≈ 1.27 µM); MIC ([11]; K12ML1410, 18 h): 3.12 µg/mL (≈ 5.09 µM); MIC [28]: 0.78 µg/mL (≈ 1.27 µM); MIC ([19]; TYPE22NO.3038, 18 h): 1.56 µg/mL (≈ 2.55 µM); MIC [22, 32]: 0.78 µg/mL (≈ 1.27 µM); MIC ([24]; GN315, 18 h): 3.12 µg/mL (≈ 5.09 µM)
